From patent publication US8828435B2, “Buccal delivery system” (Lingual Consegna Pty Ltd, priority 2006, dated 2014)
Read-outs that look alike come from different tables or passages of the source.

Key:
[1] = background statement, cited from earlier work; for absorbed fraction of the ingested dose: oral
[2] = Hormone concentrations in saliva after buccal LINGUET tablet (radioimmunoassay); type: in vivo, post-menopausal women; settings: elevation maintained over the following 8-12 hours
Description: Saliva was collected according to the standardized directions provided by the laboratory, Australian Reference Laboratories (Melbourne), and stored frozen (−20° C.) prior to shipping for hormonal analysis. In brief, subjects rinsed their mouths thoroughly with water and waited 5-10 min before swallowing any saliva in the mouth. Subjects then expressed saliva directly into the collection tubes.
Saliva samples were obtained for single dose estimation at the following times: pre-dose (0), and 1.0, 4.0, 8.0, 12.0, 16.0 and 24 h after dosing. For steady-state analysis, saliva was collected at pre-dose (0), and 1.0, 4.0, 8.0 and 12.0 h after LINGUET tablet administration.
Hormone concentrations in saliva were conducted by the […] (Melbourne) using validated, commercial radioimmunoassays. This laboratory is similarly an accredited pathology provider.

[3] = Open-label clinical trial: plasma hormone pharmacokinetics after buccal LINGUET tablet, single dose and two weeks twice daily; type: in vivo, post-menopausal women; settings: for absorption from the LINGUET tablet: achieved concentrations found in normal young menstruating women
Description: The trial was conducted with approval of an ethics committee within the hospital.
The excipients in the LINGUET tablets consisted of silica gel, magnesium stearate, acacia, stevia and polyethylene glycol with a wildberry flavour. The LINGUET tablets employed in this trial were formulated in a single batch for the study using the process according to the invention as described in example 2 above. The LINGUET tablets were provided by Richard Stenlake Compounding Pharmacist (Bondi Junction, Australia).
The study was an open-label investigation in six post-menopausal women. Before entry into the trial, subjects gave informed consent, and underwent medical and biochemical screening. Subjects were in general good health, and at least one year post-menopausal.
Subjects discontinued their prescribed HRT therapy as well as any herbal or alternative medicines not less than three days prior to the first study day. Subjects presented to the Clinical Trials Centre on the morning of each study day after an overnight fast. An indwelling cannula was inserted into a forearm vein and a baseline blood specimen collected.
On the first day, a half-LINGUET tablet was placed in the buccal cavity (between the cheek and the gum) and allowed to dissolve. Subjects were instructed not to swallow the formulation. […] Subjects rinsed their mouths with water at 45 min. Blood samples were collected via the cannula at timed intervals over 24 h. Subjects were discharged, but continued to take half a LINGUET tablet, twice daily, for the following two weeks. Subjects then re-presented to the Clinical Trials Centre where the morning dose was taken and further blood samples were collected at timed intervals over the dosage interval of 12 h.
Blood samples were schedule for collection following the single dose at the following times:
Pre-dose (0), 0.25, 0.5, 0.75, 1.0, 1.5, 2.0, 3.0, 4.0, 6.0, 8.0, 12.0, 16.0, […] and 24.0 h following the single dose, and at pre-dose (0), 0.25. 0.5, 0.75, 1.0, 2.0, 2.5, 3.0, 4.0, 6.0, 8.0, 10.0 and 12 h after the two-week dosing interval (steady-state). Actual times were recorded, and these were used for the pharmacokinetic calculations.
Plasma concentrations of hormones were determined using routine validated, radioimmunoassay techniques in the hospital laboratory (Sydpath, St Vincent's Hospital, Sydney). The laboratory is an accredited pathology provider that participates in national quality assurance programmes for hormonal analysis.
DHEA was monitored as the sulphate metabolite (DHEAS), not as the administered hormone.

[4] = plasma, single and multiple dosing

NCCCC(O)(P(=O)(O)O)P(=O)(O)O [alendronate]
absorbed fraction of the ingested dose [1]: about 1%

C[C@]12CC[C@@H]3c4ccc(O)cc4CC[C@H]3[C@@H]1CC[C@@H]2O [Oestradiol, 17-β-oestradiol]
concentrations in saliva compared with blood following use of the LINGUET tablet [2]: elevated many times higher than in blood

O=P(O)(O)C(O)(Cc1cccnc1)P(=O)(O)O [risedronate]
absorbed fraction of the ingested dose [1]: about 1%

C[C@]12CC[C@H]3[C@@H](CCC4=CC(=O)CC[C@@]43C)[C@@H]1CC[C@@H]2O [Testosterone, testosterone]
Cmax ([3]; female, human, in vivo, plasma, after the first dose (half LINGUET tablet, buccal), read-out: Cmax Day 1): 31.6 ± 10.9 nM
Tmax ([3]; female, human, in vivo, plasma, after the first dose (half LINGUET tablet, buccal), read-out: Tmax Day 1): 0.6 h
concentration at 2 weeks ([3]; female, human, in vivo, plasma, after two weeks of twice daily half-tablet, six women, mean ± spread, read-out: Trough concentration at steady-state): 0.67 ± 0.28 nM
duration of markedly increased plasma concentrations [3, 4]: up to 4 hours
return to pre-treatment values [3, 4]: ≤ 8 h
time of peak concentrations (mean) [3, 4]: 0.6 h
absorption from the LINGUET tablet ([3]; plasma): readily absorbed

C[C@]12CC[C@H](O)CC1=CC[C@@H]1[C@@H]2CC[C@]2(C)C(=O)CC[C@@H]12 [DHEA, dehydroepiandrosterone]
absorption from the LINGUET tablet ([3]; plasma): readily absorbed
change of blood concentrations of DHEAS ([3]; single dose one-half LINGUET tablet (5 mg DHEA), over 5-10 hours): doubling
oral bioavailability [1]: over 90%

C[C@]12CC[C@H](OS(=O)(=O)O)CC1=CC[C@@H]1[C@@H]2CC[C@]2(C)C(=O)CC[C@@H]12 [DHEA-sulphate, dehydroepiandrosterone-sulphate]
Tmax Day 1 ([3]; plasma, after the first dose (half LINGUET tablet, buccal)): 6.0 h
Cmax ([3]; plasma, after the first dose (half LINGUET tablet, buccal), read-out: Cmax Day 1): 2.2 ± 1.1 nM
Trough concentration at steady-state ([3]; plasma, after two weeks of twice daily half-tablet, six women, mean ± spread): 2.56 ± 1.99 nmol/L
Tmax Steady-state ([3]; plasma, after two weeks of twice daily treatment): 1.5 h
Cmax ([3]; plasma, after two weeks of twice daily treatment, read-out: Cmax Steady-state): 4 ± 2 nM

CC(=O)[C@H]1CC[C@H]2[C@@H]3CCC4=CC(=O)CC[C@]4(C)[C@H]3CC[C@]12C [Progesterone, progesterone]
Cmax ([3]; female, human, in vivo, Cmax Day 1): 22.9 ± 6.9 nM
Cmax ([3]; female, human, in vivo, Cmax Steady-state): 26.1 ± 7.6 nM
Tmax ([3]; female, human, in vivo, Tmax Day 1): 1.5 h
Tmax ([3]; female, human, in vivo, Tmax Steady-state): 1 h
plasma concentration at steady-state versus physiological level ([3]; in vivo): sustained at concentrations usually associated with physiological and biological activity in young normal women
time until concentrations decreased to below those generally associated with biological activity in the endometrium ([3]; in vivo): within five hours
concentrations in saliva compared with blood following use of the LINGUET tablet [2]: elevated many times higher than in blood
